The values below come from US9062078B2, “Substituted 7-azabicyles and their use as orexin receptor modulators” (priority 2013, dated 2015).

One may read the Ki as the equilibrium dissociation constant of an inhibitor or competing ligand from its target.

SMILES strings stand for the structures. Like-named read-outs stand apart in the source and are kept apart here.

For one assay, the target named is rat orexin 1 receptor (Rattus norvegicus, UniProt P56718). Description: Rat orexin 1 receptor radioligand binding (competitive, [3H]-SB674042, HEK293 cell preparations).
The next assay has as its target human orexin 1 receptor (Homo sapiens (Human), UniProt O43613). Put plainly: Human orexin 1 receptor radioligand binding (competitive, [3H]-SB674042, CHO cell preparations).
The target in a further assay is human orexin 2 receptor (Homo sapiens (Human), UniProt O43614). Description: Human orexin 2 receptor radioligand binding (competitive, [3H]-EMPA, HEK293 cell preparations).
[1] abbreviates: human orexin 2 receptor, [3H]-EMPA competition binding, read-out: hOX2 Ki (nm).
Setting [2] is: rat orexin 1 receptor, [3H]-SB674042 competition binding, read-out: rOX1 Ki (nm).
Setting [3] is: human orexin 1 receptor, [3H]-SB674042 competition binding, read-out: hOX1 Ki (nm).

Sequence of human orexin 1 receptor (O43613 whole entry): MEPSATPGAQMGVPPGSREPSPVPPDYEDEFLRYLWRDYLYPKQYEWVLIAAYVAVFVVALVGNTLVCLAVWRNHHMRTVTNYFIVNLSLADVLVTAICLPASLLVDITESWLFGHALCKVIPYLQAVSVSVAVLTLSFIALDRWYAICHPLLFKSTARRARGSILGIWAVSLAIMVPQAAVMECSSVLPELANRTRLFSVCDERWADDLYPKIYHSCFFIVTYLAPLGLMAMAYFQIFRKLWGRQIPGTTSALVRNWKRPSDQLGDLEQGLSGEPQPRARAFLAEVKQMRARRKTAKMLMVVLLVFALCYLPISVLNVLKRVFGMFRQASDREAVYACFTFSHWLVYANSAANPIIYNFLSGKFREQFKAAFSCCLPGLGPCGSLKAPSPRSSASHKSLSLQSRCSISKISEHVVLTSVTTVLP
Sequence of human orexin 2 receptor (O43614 whole entry): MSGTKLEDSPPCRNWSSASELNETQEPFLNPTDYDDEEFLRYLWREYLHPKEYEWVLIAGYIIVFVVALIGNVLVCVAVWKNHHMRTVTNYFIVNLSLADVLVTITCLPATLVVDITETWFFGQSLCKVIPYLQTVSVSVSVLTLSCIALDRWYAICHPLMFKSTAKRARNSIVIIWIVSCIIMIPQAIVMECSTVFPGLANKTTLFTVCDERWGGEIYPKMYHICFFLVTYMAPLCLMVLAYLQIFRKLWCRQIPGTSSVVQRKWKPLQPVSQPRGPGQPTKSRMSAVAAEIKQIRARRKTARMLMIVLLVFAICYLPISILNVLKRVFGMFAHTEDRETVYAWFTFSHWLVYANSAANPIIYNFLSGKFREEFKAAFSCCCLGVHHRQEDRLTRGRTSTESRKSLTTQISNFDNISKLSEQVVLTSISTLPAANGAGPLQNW

Turning to `Cc1ccc(-c2ncccn2)c(C(=O)N2C3CCC2C(Nc2ccc(C(F)(F)F)cn2)C3)n1` (racemic) [Example 195, (±)-(6-methyl-3-(pyrimidin-2-yl)pyridin-2-yl)(2-(5-(trifluoromethyl)pyridin-2-yl)amino)-7-azabicyclo[2.2.1]heptan-7-yl)methanone], the Ki at rat orexin 1 receptor (rOX1 Ki (nm)) stood at 57 nM; at human orexin 1 receptor (hOX1 Ki (nm)) it was 37 nM; at human orexin 2 receptor (hOX2 Ki (nm)), 325 nM.
As for `O=C(c1ccccc1-n1nccn1)N1C2CCC1C(Nc1ccc(C(F)(F)F)cn1)C2` (racemic) [Example 196, (±)-(2-(2H-1,2,3-triazol-2-yl)phenyl)(2-(5-(trifluoromethyl)pyridin-2-yl)amino)-7-azabicyclo[2.2.1]heptan-7-yl)methanone], the Ki on rat orexin 1 receptor (rOX1 Ki (nm)) is 59 nM; on human orexin 1 receptor (hOX1 Ki (nm)), 61 nM; at human orexin 2 receptor (setting [1]), 1500 nM.
With `O=C(c1ccccc1-n1nccn1)N1C2CCC1C(Nc1cnc3ccccc3n1)C2` (racemic) [Example 204, (±)-(2-(2H-1,2,3-triazol-2-yl)phenyl)(2-(quinoxalin-2-ylamino)-7-azabicyclo[2.2.1]heptan-7-yl)methanone], the values for the Ki on rat orexin 1 receptor (rOX1 Ki (nm)), at human orexin 1 receptor (hOX1 Ki (nm)) and at human orexin 2 receptor (hOX2 Ki (nm)) were 33 nM, 25 nM and 220 nM, respectively.
The matching figures for `Cc1ccc(-n2nccn2)c(C(=O)N2C3CCC2C(Nc2cnc4ccccc4n2)C3)n1` (racemic) [Example 205, (±)-(6-methyl-3-(2H-1,2,3-triazol-2-yl)pyridin-2-yl)(2-(quinoxalin-2-ylamino)-7-azabicyclo[2.2.1]heptan-7-yl)methanone]: 79 nM, 50 nM and 168 nM.
Regarding `Cc1ccc(-c2ncccn2)c(C(=O)N2C3CCC2C(Nc2cnc4ccccc4n2)C3)n1` (racemic) [Example 208, (±)-(6-methyl-3-(pyrimidin-2-yl)pyridin-2-yl)(2-(quinoxalin-2-ylamino)-7-azabicyclo[2.2.1]heptan-7-yl)methanone], the inhibitory constant (Ki) at rat orexin 1 receptor (rOX1 Ki (nm)) is 26 nM; on human orexin 1 receptor (hOX1 Ki (nm)) it was 30 nM; on human orexin 2 receptor (setting [1]), 90 nM.
The matching figures for `O=C(c1ccccc1-n1nccn1)N1C2CCC1C(Nc1ccc(Cl)cn1)C2` (racemic) [Example 211, (±)-(2-(2H-1,2,3-triazol-2-yl)phenyl)(2-(((5-chloropyridin-2-yl)amino)-7-azabicyclo[2.2.1]heptan-7-yl)methanone]: 110 nM, 55 nM and 1800 nM.
The matching figures for `O=C(c1ccccc1-n1nccn1)N1C2CCC1C(Nc1nc3cc(Cl)ccc3o1)C2` (racemic) [Example 216, (±)-(2-(2H-1,2,3-triazol-2-yl)phenyl)(2-((5-chlorobenzo[d]oxazol-2-yl)amino)-7-azabicyclo[2.2.1]heptan-7-yl)methanone]: 99 nM, 71 nM and 475 nM.
The matching figures for `Cc1ccc(-c2ncccn2)c(C(=O)N2C3CCC2C(Nc2ccc(Br)cn2)C3)n1` (racemic) [Example 217, (±)-(2-((5-bromopyridin-2-yl)amino)-7-azabicyclo[2.2.1]heptan-7-yl)(6-methyl-3-(pyrimidin-2-yl)pyridin-2-yl)methanone]: 59 nM, 40 nM and 770 nM.
`Cc1ccc(-c2ncccn2)c(C(=O)N2[C@@H]3CC[C@H]2[C@H](COc2ccccn2)C3)n1` (single isomer, unassigned) [Example 3A, (6-methyl-3-(pyrimidin-2-yl)pyridin-2-yl)((1S*,2R*,4R*)-2-((pyridin-2-yloxy)methyl)-7-azabicyclo[2.2.1]heptan-7-yl)methanone]: the Ki turned out to be 24 nM on rat orexin 1 receptor (rOX1 Ki (nm)), 19 nM at human orexin 1 receptor (hOX1 Ki (nm)) and 268 nM on human orexin 2 receptor (hOX2 Ki (nm)).
Regarding `CCOc1ccc(C)nc1C(=O)N1C2CCC1C(Nc1cnc3ccccc3n1)C2` (single isomer, unassigned) [Example 207, (±)-(3-ethoxy-6-methylpyridin-2-yl)(2-(quinoxalin-2-ylamino)-7-azabicyclo[2.2.1]heptan-7-yl)methanone], the Ki came out at 120 nM at rat orexin 1 receptor (setting [2]), 95 nM on human orexin 1 receptor (setting [3]) and 64 nM on human orexin 2 receptor (setting [1]).
Regarding `O=C(c1cccc(F)c1-c1ncccn1)N1[C@@H]2CC[C@H]1[C@H](Nc1cnc(C(F)(F)F)cn1)C2` [Example 238, (3-fluoro-2-(pyrimidin-2-yl)phenyl)((1S,2R,4R)-2-((5-(trifluoromethyl)pyrazin-2-yl)amino)-7-azabicyclo[2.2.1]heptan-7-yl)methanone], the Ki at rat orexin 1 receptor (read-out: rOX1 Ki (nm)) amounted to 16 nM; on human orexin 1 receptor (read-out: hOX1 Ki (nm)), 16 nM; on human orexin 2 receptor (read-out: hOX2 Ki (nm)), 955 nM.
As to `COc1ccc(C(=O)N2[C@@H]3CC[C@H]2[C@H](Nc2cnc(C(F)(F)F)cn2)C3)c(-n2nccn2)c1` [Example 241, (4-methoxy-2-(2H-1,2,3-triazol-2-yl)phenyl)((1S,2R,4R)-2-((5-(trifluoromethyl)pyrazin-2-yl)amino)-7-azabicyclo[2.2.1]heptan-7-yl)methanone], the Ki was 134 nM on rat orexin 1 receptor (setting [2]), 159 nM at human orexin 1 receptor (setting [3]) and 5060 nM at human orexin 2 receptor (setting [1]).
As to `COc1cccc(-n2nccn2)c1C(=O)N1[C@@H]2CC[C@H]1[C@H](Nc1cnc(C(F)(F)F)cn1)C2` [Example 242, (2-methoxy-6-(2H-1,2,3-triazol-2-yl)phenyl)((1S,2R,4R)-2-((5-(trifluoromethyl)pyrazin-2-yl)amino)-7-azabicyclo[2.2.1]heptan-7-yl)methanone], the Ki at rat orexin 1 receptor (read-out: rOX1 Ki (nm)) came to 31 nM; on human orexin 1 receptor (read-out: hOX1 Ki (nm)), 41 nM; at human orexin 2 receptor (setting [1]) it was 239 nM.
The matching figures for `O=C(c1cc(F)ccc1-c1ncccn1)N1[C@@H]2CC[C@H]1[C@H](Nc1cnc(C(F)(F)F)cn1)C2` [Example 243, (5-fluoro-2-(pyrimidin-2-yl)phenyl)((1S,2R,4R)-2-((5-(trifluoromethyl)pyrazin-2-yl)amino)-7-azabicyclo[2.2.1]heptan-7-yl)methanone]: 34 nM, 45 nM and 723 nM.
The matching figures for `Cc1nc(C(=O)N2[C@@H]3CC[C@H]2[C@H](Nc2cnc(C(F)(F)F)cn2)C3)c(-c2ccc(F)cc2)s1` [Example 244, (5-(4-fluorophenyl)-2-methylthiazol-4-yl)((1S,2R,4R)-2-((5-(trifluoromethyl)pyrazin-2-yl)amino)-7-azabicyclo[2.2.1]heptan-7-yl)methanone]: 74 nM, 46 nM and 235 nM.
The matching figures for `Cc1cccc(C(=O)N2[C@@H]3CC[C@H]2[C@H](Nc2cnc(C(F)(F)F)cn2)C3)c1-n1nccn1` [Example 245, (3-methyl-2-(2H-1,2,3-triazol-2-yl)phenyl)((1S,2R,4R)-2-((5-(trifluoromethyl)pyrazin-2-yl)amino)-7-azabicyclo[2.2.1]heptan-7-yl)methanone]: 10 nM, 7 nM and 288 nM.
Regarding `Cc1ccc(C(=O)N2[C@@H]3CC[C@H]2[C@H](Nc2cnc(C(F)(F)F)cn2)C3)c(-n2ccnn2)n1` [Example 248, (6-methyl-2-(1H-1,2,3-triazol-1-yl)pyridin-3-yl)((1S,2R,4R)-2-((5-(trifluoromethyl)pyrazin-2-yl)amino)-7-azabicyclo[2.2.1]heptan-7-yl)methanone], the Ki on rat orexin 1 receptor (setting [2]) is 153 nM; on human orexin 1 receptor (setting [3]), 119 nM; at human orexin 2 receptor (setting [1]), above 10000 nM.
As to `COc1ccc(C(=O)N2[C@@H]3CC[C@H]2[C@H](Nc2cnc(C(F)(F)F)cn2)C3)c(-c2ncccn2)c1` [Example 249, (4-methoxy-2-(pyrimidin-2-yl)phenyl)((1S,2R,4R)-2-((5-(trifluoromethyl)pyrazin-2-yl)amino)-7-azabicyclo[2.2.1]heptan-7-yl)methanone], the Ki at rat orexin 1 receptor (read-out: rOX1 Ki (nm)) was found to be 57 nM; on human orexin 1 receptor (read-out: hOX1 Ki (nm)), 54 nM; at human orexin 2 receptor (setting [1]) it was 5600 nM.
Turning to `O=C(c1ccc(OC(F)F)cc1-n1nccn1)N1[C@@H]2CC[C@H]1[C@H](Nc1cnc(C(F)(F)F)cn1)C2` [Example 253, (4-(difluoromethoxy)-2-(2H-1,2,3-triazol-2-yl)phenyl)((1S,2R,4R)-2-((5-(trifluoromethyl)pyrazin-2-yl)amino)-7-azabicyclo[2.2.1]heptan-7-yl)methanone], the Ki on rat orexin 1 receptor (setting [2]) turned out to be 155 nM; at human orexin 1 receptor (setting [3]), 152 nM; on human orexin 2 receptor (setting [1]) it was 9600 nM.
`COc1ccc(-n2nccn2)c(C(=O)N2[C@@H]3CC[C@H]2[C@H](Nc2cnc(C(F)(F)F)cn2)C3)c1` [Example 255, (5-methoxy-2-(2H-1,2,3-triazol-2-yl)phenyl)((1S,2R,4R)-2-((5-(trifluoromethyl)pyrazin-2-yl)amino)-7-azabicyclo[2.2.1]heptan-7-yl)methanone]: the Ki came out at 32 nM at rat orexin 1 receptor (read-out: rOX1 Ki (nm)), 29 nM on human orexin 1 receptor (read-out: hOX1 Ki (nm)) and 265 nM at human orexin 2 receptor (setting [1]).
For `O=C(c1c(F)cccc1-n1nccn1)N1[C@@H]2CC[C@H]1[C@H](Nc1cnc(C(F)(F)F)cn1)C2` [Example 258, (2-fluoro-6-(2H-1,2,3-triazol-2-yl)phenyl)((1S,2R,4R)-2-((5-(trifluoromethyl)pyrazin-2-yl)amino)-7-azabicyclo[2.2.1]heptan-7-yl)methanone], the Ki was found to be 42 nM at rat orexin 1 receptor (read-out: rOX1 Ki (nm)), 48 nM at human orexin 1 receptor (read-out: hOX1 Ki (nm)) and 690 nM on human orexin 2 receptor (setting [1]).
The matching figures for `O=C(c1cccc(F)c1-c1ncco1)N1[C@@H]2CC[C@H]1[C@H](Nc1cnc(C(F)(F)F)cn1)C2` [Example 260, (3-fluoro-2-(oxazol-2-yl)phenyl)((1S,2R,4R)-2-((5-(trifluoromethyl)pyrazin-2-yl)amino)-7-azabicyclo[2.2.1]heptan-7-yl)methanone]: 14 nM, 10 nM and 519 nM.
